Among the test systems are CCRF-CEM leukemia; EKVX NSCLC; HCC-2998 colon; HOP-92 NSCLC; IGROV1 ovarian; MALME-3M melanoma; OVCAR-5 ovarian; SF-295 CNS; UACC-257 melanoma; UACC-62 melanoma.
Common to all, as to assay: DTP human tumour cell line panel, 48 h

Molecules are shown by their SMILES.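 Grown in 96-well plates, cells were treated for 48 hours with each compound at five concentrations. Insufficient inhibition: endpoint recorded as highest concentration tested. GI50 marks 50% less growth. Definition used: TGI = concentration required for complete inhibition of growth.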

Take `C[C@]12Cc3cnc(-c4ccccc4)nc3C[C@@H]1CC[C@@H]1[C@@H]2CC[C@@]2(C)[C@H]1CC[C@]2(C)O`: the TGI is 77.7 µM in the experiment with CCRF-CEM leukemia; > 87.1 µM in the experiment on EKVX NSCLC; 37.9 µM with HCC-2998 colon; 54.4 µM in the experiment on HOP-92 NSCLC; 63.3 µM in the experiment on IGROV1 ovarian; 43.5 µM in the experiment with MALME-3M melanoma. In addition, the TGI was determined as 63.4 µM with OVCAR-5 ovarian, 52.4 µM with SF-295 CNS, 44.9 µM in the experiment on UACC-257 melanoma and 48.4 µM with UACC-62 melanoma.
Regarding `O=C1CCCC/C1=C1/SC(=Nc2ccccc2)C(=Nc2ccccc2)N1c1ccccc1`, the TGI with CCRF-CEM leukemia, in the experiment on HCC-2998 colon, in the experiment with HOP-92 NSCLC, with IGROV1 ovarian, in the experiment with MALME-3M melanoma and in the experiment with OVCAR-5 ovarian was > 100 µM throughout. Also, the TGI in the experiment with SF-295 CNS and in the experiment with UACC-62 melanoma was > 100 µM in each case.
As to `O=NN1C(c2ccccc2)C2CCCC(C2=O)C1c1ccccc1` (centres undefined), the TGI in the experiment with CCRF-CEM leukemia is > 83.6 µM; with EKVX NSCLC, > 79.5 µM; in the experiment with HCC-2998 colon, 34.4 µM; in the experiment on HOP-92 NSCLC it was 55.6 µM; with IGROV1 ovarian, > 92.7 µM; in the experiment on MALME-3M melanoma, 19.8 µM. Besides, the TGI in the experiment on OVCAR-5 ovarian is > 100 µM; in the experiment with SF-295 CNS, > 84.2 µM; in the experiment with UACC-257 melanoma it was 66.2 µM; in the experiment on UACC-62 melanoma it was 59 µM.
On to `O=C(O)C(O)(c1ccc(-c2ccccc2)cc1)c1ccc(-c2ccccc2)cc1`, for which the TGI with EKVX NSCLC was found to be 70.9 µM; with HOP-92 NSCLC it was 41.4 µM; in the experiment with IGROV1 ovarian it was 57.3 µM; in the experiment with MALME-3M melanoma, 60.4 µM; in the experiment on OVCAR-5 ovarian, 77.8 µM; with SF-295 CNS, 68.8 µM. The TGI in the experiment on UACC-257 melanoma was > 100 µM; in the experiment on UACC-62 melanoma it was 36.7 µM.
With `COC1CC(OC2CCC3(C)C(=CCC4C3C(OC(C)=O)C(OC(=O)CC(C)C)C3(C)C(C(C)=O)CCC43O)C2)OC(C)C1OC1CC(OC)C(OC2CC(OC)C(OC3OC(C)C(O)C(OC)C3O)C(C)O2)C(C)O1` (centres undefined), the TGI is 72.6 µM with CCRF-CEM leukemia; > 100 µM with EKVX NSCLC; 70.3 µM in the experiment with HCC-2998 colon; 57.6 µM with HOP-92 NSCLC; > 100 µM in the experiment on IGROV1 ovarian; > 100 µM in the experiment on MALME-3M melanoma. For the same compound, the TGI in the experiment with OVCAR-5 ovarian, in the experiment on SF-295 CNS, with UACC-257 melanoma and in the experiment with UACC-62 melanoma was > 100 µM in each case.
On to `COc1ccc(NC(=S)NNC(=O)c2nsc3ccccc23)cc1`, for which the TGI in the experiment with EKVX NSCLC was > 100 µM; in the experiment with HCC-2998 colon, > 100 µM; in the experiment with HOP-92 NSCLC, 83.5 µM; in the experiment on IGROV1 ovarian, > 100 µM; in the experiment on OVCAR-5 ovarian, > 100 µM; in the experiment with UACC-257 melanoma, > 100 µM. The same compound displayed a TGI with UACC-62 melanoma of 71.6 µM.
Regarding `COc1ccc(C(=O)NC2=C(Cl)C(=O)c3ccccc3C2=O)cc1`, the TGI in the experiment on CCRF-CEM leukemia was > 100 µM; with EKVX NSCLC it was 26.1 µM; in the experiment on HCC-2998 colon, 16.9 µM; in the experiment with HOP-92 NSCLC it was 2.73 µM; in the experiment with IGROV1 ovarian it was 12.9 µM; in the experiment on MALME-3M melanoma, 3.19 µM. Also, the TGI was found to be 11.4 µM in the experiment with OVCAR-5 ovarian, 13.8 µM with SF-295 CNS, 4.5 µM in the experiment with UACC-257 melanoma and 2.63 µM in the experiment on UACC-62 melanoma.
`Clc1ccc(C2CC(c3cccc(Nc4ccncc4)c3)=NN2c2ccc(Cl)cc2)cc1` (centres undefined): the GI50 in the experiment on EKVX NSCLC was 1.58 µM; with HCC-2998 colon, 1.73 µM; in the experiment on HOP-92 NSCLC, 1.38 µM; in the experiment with IGROV1 ovarian it was 1.65 µM; in the experiment with OVCAR-5 ovarian, 1.54 µM; with SF-295 CNS it was 1.58 µM. In addition, in the experiment with UACC-62 melanoma, the GI50 was 1.66 µM. Further, the TGI in the experiment with EKVX NSCLC turned out to be 3.04 µM; in the experiment with HCC-2998 colon, 3.27 µM; in the experiment on HOP-92 NSCLC, 2.79 µM; with IGROV1 ovarian, 3.18 µM; in the experiment with OVCAR-5 ovarian, 2.88 µM; with SF-295 CNS, 2.96 µM. In the experiment with UACC-62 melanoma, the TGI turned out to be 3.04 µM.
For `Nc1c(OCC(=O)O)ccc2cc(S(=O)(=O)O)ccc12`, the TGI in the experiment with CCRF-CEM leukemia, in the experiment on HCC-2998 colon, in the experiment with IGROV1 ovarian, in the experiment with MALME-3M melanoma, in the experiment with SF-295 CNS and with UACC-257 melanoma was > 100 µM each time. The TGI in the experiment with UACC-62 melanoma was > 100 µM.
Take `Clc1cc2ccccc2c2ccccc12`: the TGI with CCRF-CEM leukemia was > 100 µM; with EKVX NSCLC, > 100 µM; in the experiment on HCC-2998 colon, > 100 µM; with HOP-92 NSCLC, 87.3 µM; in the experiment with IGROV1 ovarian it was > 100 µM; in the experiment with MALME-3M melanoma, > 100 µM. For the same compound, the TGI in the experiment with OVCAR-5 ovarian, in the experiment with SF-295 CNS, in the experiment with UACC-257 melanoma and with UACC-62 melanoma was > 100 µM throughout.
Take `c1ccc2c(c1)OCCc1cn[nH]c1-2`: the TGI in the experiment with CCRF-CEM leukemia, in the experiment with EKVX NSCLC, in the experiment on HCC-2998 colon, in the experiment on HOP-92 NSCLC, in the experiment on IGROV1 ovarian and in the experiment with MALME-3M melanoma was > 100 µM throughout. Further, the TGI in the experiment with OVCAR-5 ovarian, with SF-295 CNS, with UACC-257 melanoma and in the experiment on UACC-62 melanoma was > 100 µM each time.
As for `CCOC(=O)c1nc2ccccc2n(CC)c1=O`, the TGI in the experiment with CCRF-CEM leukemia, in the experiment on EKVX NSCLC, with HCC-2998 colon, in the experiment with HOP-92 NSCLC, in the experiment on IGROV1 ovarian and in the experiment on MALME-3M melanoma was > 100 µM each time. The TGI in the experiment with OVCAR-5 ovarian, in the experiment with SF-295 CNS, in the experiment with UACC-257 melanoma and in the experiment with UACC-62 melanoma was > 100 µM each time.
Turning to `CC[C@@]1(OC(=O)CN(C)C)C(=O)OCc2c1cc1n(c2=O)Cc2cc3c(N)cccc3nc2-1`, the GI50 was < 0.01 µM with CCRF-CEM leukemia; 0.262 µM with EKVX NSCLC; 0.131 µM in the experiment on HCC-2998 colon; 0.0239 µM with HOP-92 NSCLC; 0.0609 µM with IGROV1 ovarian; 0.317 µM in the experiment with OVCAR-5 ovarian. In addition, the GI50 was 0.0933 µM in the experiment on UACC-257 melanoma and 0.0164 µM with UACC-62 melanoma. In addition, the TGI in the experiment with CCRF-CEM leukemia is 0.025 µM; in the experiment on EKVX NSCLC it was 3.58 µM; in the experiment with HCC-2998 colon, 0.875 µM; with HOP-92 NSCLC, 0.785 µM; in the experiment with IGROV1 ovarian it was 0.421 µM; with OVCAR-5 ovarian it was > 100 µM. Moreover, the TGI worked out at 0.981 µM in the experiment on UACC-257 melanoma and 0.159 µM in the experiment on UACC-62 melanoma.
For `OC(c1ccc(Cl)cc1)(c1ccc(Cl)cc1)c1cncnc1`, the TGI in the experiment with CCRF-CEM leukemia is 54.1 µM; with HOP-92 NSCLC, 31.2 µM; with MALME-3M melanoma, > 100 µM; in the experiment on OVCAR-5 ovarian, 36.6 µM; with SF-295 CNS, 37.2 µM; with UACC-257 melanoma it was 40.5 µM. In the experiment with UACC-62 melanoma, this compound had a TGI of 30.1 µM.
Turning to `CN(C)CCCNc1ccc2nnn3c4ccc(OC(=O)c5ccccc5)cc4c(=O)c1c23`, the TGI in the experiment with CCRF-CEM leukemia was determined as 7.98 µM; with EKVX NSCLC, 20.2 µM; with HCC-2998 colon, 26.1 µM; with HOP-92 NSCLC it was 39.2 µM; in the experiment on IGROV1 ovarian, 36.3 µM; in the experiment with MALME-3M melanoma, 29.2 µM. Further, the TGI came out at 30.4 µM with OVCAR-5 ovarian, 24.3 µM in the experiment with SF-295 CNS, 34.3 µM with UACC-257 melanoma and 29.6 µM in the experiment with UACC-62 melanoma.
In the case of `CN(CCO)Cc1ncccc1O`, the TGI with CCRF-CEM leukemia, with EKVX NSCLC, in the experiment with HOP-92 NSCLC, in the experiment on IGROV1 ovarian, in the experiment with MALME-3M melanoma and with OVCAR-5 ovarian was > 100 µM throughout. Also, the TGI in the experiment with SF-295 CNS, with UACC-257 melanoma and with UACC-62 melanoma was > 100 µM each time.
Turning to `COc1cc2c(cc1OC)C1c3ccccc3CCN1CCC2` (centres undefined), the TGI with CCRF-CEM leukemia, in the experiment on EKVX NSCLC, in the experiment on HCC-2998 colon, with IGROV1 ovarian, with MALME-3M melanoma and in the experiment on OVCAR-5 ovarian was > 100 µM in each case. Moreover, the TGI with SF-295 CNS, in the experiment on UACC-257 melanoma and in the experiment on UACC-62 melanoma was > 100 µM in each case.
With `NC1C=NNC1=O` (centres undefined), the TGI in the experiment on CCRF-CEM leukemia, in the experiment on EKVX NSCLC, in the experiment with HCC-2998 colon, with IGROV1 ovarian, with MALME-3M melanoma and in the experiment with OVCAR-5 ovarian was > 100 µM each time. The TGI in the experiment on SF-295 CNS, in the experiment with UACC-257 melanoma and with UACC-62 melanoma was > 100 µM throughout.
